This note sets out measurements from PubChem BioAssay (NCI).

“And” between values parts separate entries of the source, which are not always exact repeats. Identical values can stand only once.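 Protocol summary: plate cells (96-well), add compound at 5 concentrations, incubate 48 h, interpolate endpoints linearly. Abbreviation: GI50, concentration required for 50% inhibition of growth. TGI: total growth inhibition.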

Test in all cases: DTP human tumour cell line panel, 48 h
The test system of test [1] is ACHN renal.
Test [2] concerns HCT-116 colon.
The test system of test [3] is HCT-15 colon.
The subject of test [4] is MALME-3M melanoma.
The subject of test [5] is MDA-MB-435.
For test [6], the system named is MDA-N.
Test [7] has as its system OVCAR-8 ovarian.
Test [8] deals with SF-268 CNS.
The subject of test [9] is SN12C renal.
The subject of test [10] is HOP-92 NSCLC.
Test [11] relates to NCI-H522 lung.

As usually defined, the TGI is the concentration at which net growth stops. Low readings indicate greater sensitivity of the cells, high ones lower sensitivity of the cells. For the compound `COc1cc(N=NN(C)C)c(C(C)c2c3cc(OC)c(OC)cc3cc[n+]2C)cc1OC` (stereo not drawn), the TGI in test [1] was greater than 100 µM; in test [2], greater than 100 µM; in test [3] it was greater than 100 µM; in [4], 87.5 µM; in test [5], greater than 100 µM; in test [6], greater than 100 µM. Besides, the TGI in test [7], in test [8] and in [9] was greater than 100 µM each time.

As to `O=C1CCCc2c1c1c(n2Cc2ccccc2)-c2ccccc2C1=O`, the TGI in test [1] was determined as 30.9 µM; in test [2] it was 31.1 µM; in test [3], 34.7 µM; in test [10] it was 99.7 µM; in test [4] it was 38.1 µM; in test [5], 38.2 µM. The TGI in test [11] is 33.8 µM; in test [7], 34 µM; in test [8] it was 64.1 µM; in [9] it was 45.5 µM.

In general, GI50 refers to the concentration that inhibits growth by half. On to `COc1cc([C@@H]2c3cc4c(cc3[C@@H](NCCNCCO)[C@H]3COC(=O)[C@H]23)OCO4)cc(OC)c1O`, for which the GI50 in [1] was 0.856 µM and 2.43 µM; in test [4], 2.72 µM and 1.2 µM; in test [11], 2.22 µM and 1.05 µM; in [8], 0.761 µM and 1.59 µM; in test [9], 0.934 µM and 0.331 µM. Moreover, the concentration for total growth inhibition (TGI) is 8.68 µM and 21.2 µM in [1]; 44 µM and 32.9 µM in [2]; greater than 100 µM in test [3]; 24.4 µM and 10.8 µM in test [4]; 35 µM and 31.6 µM in test [5]; 21.4 µM and 28.8 µM in test [6]. For the same compound, the TGI in [11] is > 22 µM and 6.55 µM; in test [7], > 22.4 µM and 20.8 µM; in test [8] it was 51.8 µM; in test [9] it was 24.1 µM and 3.19 µM.

With `O=C1NC2(CCCCC2)N=C2C(Cl)CCCC12Cl` (stereo not drawn), the TGI in test [1], in [3], in test [4], in test [5], in test [6] and in test [11] was greater than 100 µM in each case. The TGI in test [7], in test [8] and in [9] was greater than 100 µM each time.

Consider `O=C(NO)c1coc2ccccc2c1=O`, for which the TGI in test [1], in test [3], in test [4], in test [11], in [7] and in test [8] was greater than 100 µM throughout. The TGI in test [9] is greater than 100 µM.

As to `COc1ccc(Cc2nc3cc(C(F)(F)F)ccc3n2CCCN(C)C)cc1`, the TGI is 79.9 µM in test [1]; 48.8 µM in test [3]; greater than 100 µM in test [10]; 29.1 µM in [4]; 29.7 µM in test [5]; 31.8 µM in test [11]. Also, the TGI in test [7] was greater than 100 µM; in test [8], 70.9 µM.

On to `CC(=O)[O-].CC(=O)[O-].O=C(N/N=C/c1cc(Cl)cc(Cl)c1[OH2+])c1ccncc1.[Co+2]`, for which the TGI in [1] is greater than 100 µM; in test [2], greater than 100 µM; in test [3], greater than 100 µM; in test [10] it was 95.9 µM; in test [4], greater than 100 µM; in test [11], greater than 100 µM. The TGI in test [7], in test [8] and in [9] was greater than 100 µM in each case. In addition, the GI50 in test [10] was 23.6 µM.

Turning to `CC1(O)CC2C(CC1SCCO)C2(C)C` (stereo not drawn), the TGI in test [1], in [2], in test [3], in test [10], in test [4] and in [7] was greater than 100 µM each time. For the same compound, the TGI in test [8] and in test [9] was greater than 100 µM throughout.

On to `N#Cc1c(-c2ccccc2)/c(=C\O)c(=O)n2c1nc1ccccc12`, for which the total growth inhibition concentration (TGI) in test [1], in test [2], in test [3], in test [4], in test [5] and in test [6] was greater than 100 µM each time. For the same compound, the TGI in test [11], in test [7], in [8] and in test [9] was greater than 100 µM each time.

`Cc1cc2[nH]c3c(C#N)c(-c4ccccc4)c(N=Nc4cccc(C(F)(F)F)c4)c(=O)n3c2cc1C`: the total growth inhibition concentration (TGI) in test [1], in test [2], in [3], in [4], in [5] and in [6] was greater than 100 µM in each case. For the same compound, the TGI in [11] was 69.4 µM; in test [7], greater than 100 µM; in [8], greater than 100 µM; in test [9], greater than 100 µM.

For the compound `CCSC1=N/C(=C\c2ccccc2O)C(Nc2ccc(C)cc2)=N1`, the TGI in test [1], in test [2], in [3], in [10], in [4] and in [5] was greater than 100 µM in each case. Moreover, the TGI in test [11] was 94.4 µM; in test [7], greater than 100 µM; in test [8], greater than 100 µM; in [9] it was greater than 100 µM.

As for `O=C1c2ccccc2-c2nc(-c3cccnc3)cc3c2c1nc1ccccc13`, the TGI in test [1] was greater than 100 µM; in test [2], greater than 100 µM; in [3] it was greater than 100 µM; in [10], greater than 100 µM; in test [4] it was greater than 100 µM; in [5], 34.7 µM. Besides, the TGI in test [11], in test [7], in test [8] and in test [9] was greater than 100 µM throughout.

As for `CC(NS(C)(=O)=O)c1ccccc1` (stereo not drawn), the concentration for total growth inhibition (TGI) in test [2], in [3], in test [4], in [5], in [6] and in test [11] was greater than 100 µM in each case. For the same compound, the TGI in [7] and in test [9] was greater than 100 µM each time.

As for `CCOc1ccc2c(c1)/C(=C(\C(Cl)=C(Cl)Cl)[N+](=O)[O-])N2`, the TGI in test [1], in test [2], in test [3], in [4], in test [5] and in test [6] was greater than 100 µM throughout. The TGI in test [7], in [8] and in [9] was greater than 100 µM in each case.
